Experimental findings from article PMC7515829, “HKDC1 C-terminal based peptides inhibit extranodal natural killer/T-cell lymphoma by modulation of mitochondrial function and EBV suppression” (Leukemia, 2020) are described below.

One experiment has as its system BZLF1. The experiment can be described thus: mRNA level by qPCR in SNK6 cells. The settings on record: 0.5 µM peptide, 6 h, vs CTL, n = 4 (Fig. 3f). Format: cell-based, EBV. The method, then: (§1) Fig. 3 Peptide for the last eight aa of HKDC1 at the C-terminal (Tf-D-HKC8) inhibits EBV replication and P-gp expression through ROS generation and DNA damage in ENKTL cells. SNK6 cells were treated with control (CTL), Tf-D-HKN15, Tf-D-HKC15, or Tf-D-HKC8 peptide (0.5 µM) for 6 h and the cells were used for biomedical analysis. a ROS formation, n = 5. b 3-nitrotyrosine (3-NT) formation, n = 5. c 8-OHdG formation, n = 5. d Quantitation of γH2AX formation, n = 5. e Representative western blotting bands for d. f mRNA level by qPCR for BZLF1, BMRF1, and ABCB1, n = 4. g Protein quantitation for Zta, EA-D, and P-gp, n = 5. h Representative pictures of western blots for g. i EBV viral genomes/cell by qPCR, n = 4. *P < 0.05, vs CTL group; ^¶P < 0.05, vs Tf-D-HKC15 group. Results were expressed as mean ± SEM.

A further experiment concerns BMRF1. The experiment can be described thus: mRNA level by qPCR in SNK6 cells. Format: cell-based, EBV. To be noted: 0.5 µM peptide, 6 h, vs CTL, n = 4 (Fig. 3f). The method, then: as §1
Another experiment deals with EBV Zta. The experiment can be described thus: Protein level in xenograft tumor tissue (western blot). The experiment is classed as in vivo. The settings on record: SNK6 xenograft, Balb/c athymic nude mice; intratumoral 50 µM peptide, 20 µl per tumor, every 2 days from day ~18; tissue day 50; western blot vs CTL; n = 5. From the text: (§2) Biomedical analysis of tumor tissues.

In experiment [1] the test system is SNK6 cells. The experiment can be described thus: 8-OHdG formation (DNA damage ELISA). The experiment is classed as cell-based, human. The settings on record: 0.5 µM peptide, 6 h, vs CTL, n = 5 (Fig. 3c). The protocol:
(§3) Measurement of DNA breaks. 8-OHdG formation was measured using an OxiSelect™ Oxidative DNA Damage ELISA Kit (Cat No. STA320, from Cell Biolabs Inc.) per manufacturers’ instructions. The formation of γH2AX was measured from nuclear extracts by western blotting using H2AX as the input control (8).

In the next experiment the test system is Zta. The settings on record: SNK6 xenograft, nude mice; intratumoral 50 µM peptide every 2 days from day ~18; tissue day 50; IHC vs CTL; n = 3.
Experiment [2] deals with EBV. The experiment can be described thus: EBV viral genomes/cell by qPCR in SNK6 cells. The experiment is classed as cell-based. The settings on record: 0.5 µM peptide, 6 h, vs CTL, n = 4 (Fig. 3i). The protocol:
(§4) Detection of EBV copy number. Genomic DNA was extracted from treated SNK-6 cells or SNK-6 tumor tissue in mice using a QIAamp DNA Mini Kit (Qiagen). The EBV DNA copy number was measured through qPCR using 50ng of total DNA with EBV BMRF1 primers (see Table 1), and the results were normalized using cellular β-actin (primers see Table 1) as an internal control (13, 14). The Namalwa cell line, which contains 2 EBV viral genome copies, was used as a standard to prepare calibration curves for both EBV BMRF1 and β-actin genes, and the EBV viral load was presented as the number of viral genomes per cell (15, 16).

The subject of experiment [3] is SNK6 cells. The experiment can be described thus: Cell migration assay. Format: cell-based, human. To be noted: 0.5 µM peptide, 6 h, vs CTL, n = 5 (Fig. 5b). The protocol:
(§5) Migration and invasion assays. Cell migration and invasion assays were performed in 24-well chemotaxis plates with an 8μm polycarbonate filter membrane. The plates were coated with 20μg Matrigel for invasion assays and uncoated for migration assays. Invasion and migration were expressed as the number of migrated cells bound per microscopic field and averaged from at least four fields per assay in at least 4 experiments (18, 19).

Experiment [4] has as its system EBV. The experiment can be described thus: EBV viral genomes/cell by qPCR in tumor tissue. The experiment is classed as in vivo, mouse. To be noted: SNK6 xenograft, nude mice; intratumoral 50 µM peptide every 2 days from day ~18; tissue day 50; qPCR vs CTL; n = 4. The protocol: as §4
The next experiment has as its system EBV EA-D. The experiment can be described thus: Protein level in xenograft tumor tissue (western blot). The experiment is classed as in vivo, mouse. To be noted: SNK6 xenograft, nude mice; intratumoral 50 µM peptide every 2 days from day ~18; tissue day 50; western blot vs CTL; n = 5.
Source text: as §2

The next experiment has as its system P-gp. Described as above. Format: in vivo, mouse. To be noted: SNK6 xenograft, nude mice; intratumoral 50 µM peptide every 2 days from day ~18; tissue day 50; western blot vs CTL; n = 5.
Source text: as §2

Experiment [5] relates to SNK6 xenograft. The experiment can be described thus: Superoxide anion release from tumor tissue. Format: in vivo, mouse. To be noted: nude mice, intratumoral 50 µM peptide every 2 days from day ~18, tissue day 50, chemiluminescence vs CTL, n = 5. The protocol: In vivo superoxide release analysis. Superoxide anion (O2^.-) release from tumor tissues was determined using a luminol-EDTA-Fe enhanced chemiluminescence (CL) system supplemented with DMSO-TBAC (Dimethyl sulfoxide-tetrabutyl-ammonium chloride) solution for extraction of released O2^.- from tissues, as described previously (11). Superoxide levels were calculated from the standard curve generated by the xanthine/xanthine oxidase reaction (8).

The subject of experiment [6] is SNK6 xenograft. The experiment can be described thus: Mouse survival, Kaplan–Meier analysis. The experiment is classed as in vivo. The settings on record: nude mice, intratumoral 50 µM peptide every 2 days from day ~18, compared with CTL group, n = 9. The protocol: Statistical analysis. The data was given as mean ± SEM; all of the experiments were performed at least in quadruplicate unless otherwise indicated. One-way ANOVA followed by the Bonferroni post hoc test was used to determine statistical significance of different groups. The mouse survival curve was determined through Kaplan-Meier survival analysis using SPSS 22 software, and a P value < 0.05 was considered significant (8).

A further experiment concerns SW620. The experiment can be described thus: Cell death IC50 by PI staining/FACS. The settings on record: Human colorectal adenocarcinoma/EBV(−), 0.1–15 µM, 6 h (suspension) or 12 h (adherent cells), mean ± SEM, read-out: Peptide IC50 (µM), cell death, SW620. Format: cell-based. The method, then:
(§6) Measurement of apoptosis and cell death. Apoptosis was evaluated by TUNEL assay using the In Situ Cell Death Detection Kit™ (Roche). Cells were fixed in 4% paraformaldehyde and labeled with TUNEL reagents. Stained cells were photographed by a fluorescence microscope (11). For cell death analysis, the propidium iodide (PI) staining was performed by addition of 6.25 µg/ml of PI to the cells, and cell death was immediately evaluated by FACS analysis (3).

Another experiment relates to THP1. The experiment can be described thus: Cell death IC50 by PI staining/FACS. Format: cell-based. To be noted: Human monocytic leukemia/EBV(−), 0.1–15 µM, 6 h (suspension) or 12 h (adherent cells), mean ± SEM, read-out: Peptide IC50 (µM), cell death, THP1. The method, then: as §6
For experiment [7], the system named is SNK6 cells. The experiment can be described thus: Cell invasion assay. Format: cell-based, human. To be noted: 0.5 µM peptide, 6 h, Matrigel, vs CTL, n = 5 (Fig. 5c). The protocol: as §5
Experiment [8] concerns SNK6 cells. The experiment can be described thus: γH2AX formation (western blot). The experiment is classed as cell-based, human. The settings on record: 0.5 µM peptide, 6 h, vs CTL, n = 5 (Fig. 3d). The method, then:
as §3

On to HAIYPRH-LQQAQKEN [Tf-D-HKC8], for which, in the experiment with BZLF1, the “BZLF1 mRNA” value came to 21%. Besides, in the experiment with BMRF1, the “BMRF1 mRNA” value is listed as 31%. The “EBV Zta protein levels in tumor” value in the experiment on EBV Zta is on record as 32%. Moreover, the 8-OHdG formation with SNK6 cells [1] was 209%. In the experiment with Zta, the “Zta gene expression on tumor tissues (IHC)” value worked out at 28%. In addition, the EBV genome copies in the experiment with EBV [2] is reported as 21%. The substance further yielded a cell migration in the experiment on SNK6 cells [3] of 23%. The “EBV genome replication in tumor” value with EBV [4] is reported as 25%. The “EBV EA-D protein in tumor” value in the experiment on EBV EA-D was 38%. Moreover, the “P-gp protein in tumor” value in the experiment with P-gp was found to be 17%. In the experiment on SNK6 xenograft [5], the “superoxide anion release from tumor” value was 297%. For the same substance, the mouse survival with SNK6 xenograft [6] was 335%. Further, the 50% inhibitory concentration (IC50) amounted to 10.2 ± 0.7 µM with SW620 and 1.8 ± 0.6 µM with THP1. Further, the cell invasion in the experiment with SNK6 cells [7] is on record as 29%. For the same substance, the γH2AX formation in the experiment on SNK6 cells [8] came to 189%.

For HAIYPRH-ITAVAKRLQQAQKEN [Tf-D-HKC15], in the experiment with BZLF1, the “BZLF1 mRNA” value is 47%. Further, the “BMRF1 mRNA” value in the experiment with BMRF1 turned out to be 65%. Further, the “EBV Zta protein levels in tumor” value in the experiment on EBV Zta was determined as 65%. In the experiment with SNK6 cells [1], the 8-OHdG formation stood at 157%. Besides, the “Zta gene expression on tumor tissues (IHC)” value with Zta came to 64%. Moreover, the EBV genome copies in the experiment on EBV [2] is 62%. In addition, the cell migration in the experiment with SNK6 cells [3] came to 66%. In the experiment on EBV [4], the “EBV genome replication in tumor” value came out at 59%. Also, the “EBV EA-D protein in tumor” value in the experiment on EBV EA-D is given as 61%. Besides, the “P-gp protein in tumor” value in the experiment with P-gp is reported as 48%. For the same substance, in the experiment on SNK6 xenograft [5], the “superoxide anion release from tumor” value was determined as 203%. The mouse survival in the experiment with SNK6 xenograft [6] is given as 197%. For the same substance, the IC50 in the experiment with SW620 was 12.5 ± 0.8 µM; in the experiment with THP1, 2.3 ± 0.5 µM. Moreover, the cell invasion with SNK6 cells [7] turned out to be 61%. The γH2AX formation in the experiment with SNK6 cells [8] amounted to 144%.
